Measurements from US8003096B2, “Means and methods for the recruitment and identification of stem cells” (Vlaams Interuniversitair Instituut voor Biotechnologie VZW, priority 2003, dated 2011).

How the values were obtained:
[1] = format: in vivo, mouse
Procedure: To study the role of the plasminogen proteinase system with its plasminogen activators tPA and uPA, and active plasmin in stem/progenitor cell mobilization, mice lacking plasminogen (Plg^−/−), tPA (tPA^−/−), uPA (uPA^−/−) and both activators (tPA^−/−uPA^−/−) were used.^(17, 18) Age- and sex-matched mice were kept in IVC cages. Mobilization was induced either via a single sublethal injection i.v. of the myeloablative agent 5-fluorouracil (5-FU, 200-250 mg/kg), or via administration s.c. of recombinant human G-CSF (Filgrastim, Amgen, 200 μg/kg/d) for five consecutive days.^(12) Peripheral blood (PB) samples were obtained by retro-orbital bleeding under light anesthesia. Full blood counts were determined on the Abbott Cell Dyn 1300 hemocytometer. The number of mobilized hematopoietic progenitor cells (HPCs) in the circulation was determined via methylcellulose-based CFU-C assays (MethoCult, Stem Cell Technologies), per 10^5 peripheral blood mononuclear cells (PB MNCs).^(12) The number of mobilized hematopoietic stem cells (HSCs) in the circulation was quantified via splenic colony-forming assays (CFU-S), and evaluated for long-term engraftment via transplantation into lethally irradiated syngeneic wild-type recipients (9.5 Gy total body irradiation). […]
Wild-type mice and mice lacking Plg, both tPA and uPA, tPA, uPA, uPAR, PAI-1, α2AP, MMP-2 (kind gift from S. Itohara), MMP-3 (kind gift from J. Mudgett), MMP-9, MMP-12 (kind gift from S. Shapiro), and TIMP-1 (obtained by courtesy of P. Soloway) were used, and housed in barrier cages (individually ventilated) (Heymans et al. (1999), Nat. Med. 5:1135-42). […] Peripheral blood was repetitively sampled by retro-orbital puncture under light anesthesia, and full blood counts (EDTA buffered) were determined on a hemocytometer (Abbott Cell Dyn 1300). Peripheral blood smears were stained using Giemsa-May-Grunwald and at least 200 cells were analyzed. […]

[2] = system: sKitL; assay: sKitL levels in BM plasma (ELISA); format: in vivo, mouse; conditions: WT mice
Procedure: BM extracellular fluid (BM plasma) from mice was obtained as described previously (Petit et al. (2002), Nat. Immunol. 3:687-94). BM plasma from healthy volunteers was obtained by using the first 10 ml of collection via puncture in the iliac crest under local anesthesia, and immediate anti-coagulation with EDTA. Protein extraction on BM cells was performed as described (Heymans et al. (1999), Nat. Med. 5:1135-42). Murine sKitL and SDF1α protein levels were quantified using commercial available ELISA (R&D Systems, Abingdon, UK). Murine plasminogen, and murine and human suPAR were quantified by home-made ELISA (Heymans et al. (1999), Nat. Med. 5:1135-42; Sier et al. (2004), Thromb. Haemost. 91:403-11). Lyophilized pertussis toxin was obtained from List Laboratories. MMP-2, MMP-9, and MMP-12 activities were measured using gelatin-zymography, uPA and MMP-3 activities were measured using casein-zymography, as described previously (Heymans et al. (1999), Nat. Med. 5:1135-42). Samples from gene-deficient mice were used as negative controls. Plasmin activity of BM plasma or cells (pericellular activity) was measured using substrate colorimetry (S2403), as described previously (Heymans et al. (1999), Nat. Med. 5:1135-42). Fibrinolytic activity was measured using a modified fluorescent-based in vitro clot lysis assay (Heymans et al. (1999), Nat. Med. 5:1135-42). Western blotting was performed on non-reduced samples, which were neutralized with a cocktail of protease inhibitors (Complete Inhibitor, Roche). ECM components/fragments were detected with antibodies against mouse fibronectin and laminin (Sigma), and human D1D2D3 and D2D3 (Andolfo et al. (1999), Thromb. Haemost. 88:298-306), secondary HRP-labeled antibodies (DAKO), and ECL detection system (Amersham Pharmacia).

[3] = system: fibronectin, collagen IV; assay: Immunostaining of BM sections for ECM proteins; format: in vivo, mouse
Procedure: Mice were killed via cervical dislocation, femurs were removed, fixed in 2% paraformaldehyde in PBS for 24 hours, and decalcified in EDTA solution. After dehydration and paraffin embedding, 10 μm transverse sections were prepared on Superfrost Plus slides. Immunohistochemistry was performed using antibodies against VWF (DAKO), MMP-9 (Oncogene), tPA, uPA, MMP-2, MMP-3, MMP-12 (Santa Cruz), laminin, fibronectin (Sigma), and collagen IV (kind gift from A. Noel). Analysis was performed on a Zeiss Axioplan2, a 3CCD video camera (DXC-93OP, Sony), and KS300 software.

Structure (SMILES): O=c1[nH]cc(F)c(=O)[nH]1 [5-FU, 5-fluorouracil]
- mice that died ([1]; Plg−/− or tPA−/−uPA−/− mice, sublethal dose): up to 75%
- mice that did not survive ([1]; WT mice, sublethal dose): 10%
- time to recovery from drop in WBC, RBC and platelet counts ([1]; mouse, in vivo): 2.5-3 weeks
- elevation of sKitL levels in the BM plasma ([2]; seven days after treatment): 14 fold
- elevation of sKitL levels in the BM plasma ([2]; ten days after treatment): 2.5 fold
- collagen-IV+ area as % of total area ([3]; 5-FU-treated WT mice): 21±1%
- fibronectin+ area as % of total area ([3]; 5-FU-treated WT mice): 9±1%
- collagen-IV+ area as % of total area ([3]; 5-FU-treated uPA−/− mice): 26±1%
- fibronectin+ area as % of total area ([3]; 5-FU-treated uPA−/− mice): 14±2%
